From patent US20200361871A1 (Enterprise Therapeutics Ltd., priority 2018, published 2020)

Target: human TMEM16A (TMEM16Aabc variant) (Homo sapiens, UniProt Q5XXA6, DEL476-501, form not given)
Assay: Automated whole-cell patch clamp (Qpatch) TMEM16A potentiator assay in FRT cells stably expressing human TMEM16A
Type: cell-based
Conditions: for % Potentiation @ 3.33 μM Avg: 3.33 μM solution of test compound, percentage increase of baseline TMEM16A current; for EC50: calculated EC50, Qpatch TMEM16A current at +70 mV
Procedure, shortened: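 FRT cells stably expressing human TMEM16Aabc were recorded by automated whole-cell patch clamp, with intracellular Ca2+ buffered for ~EC20 activation, holding −70 mV and step to +70 mV at 0.05 Hz. Compound was applied cumulatively, 5 min per concentration. Peak current increase as % of baseline was fitted to give EC50 and maximum efficacy.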

Chain of human TMEM16A (TMEM16Aabc variant) (Q5XXA6 with tags, fused parts or gaps DEL476-501): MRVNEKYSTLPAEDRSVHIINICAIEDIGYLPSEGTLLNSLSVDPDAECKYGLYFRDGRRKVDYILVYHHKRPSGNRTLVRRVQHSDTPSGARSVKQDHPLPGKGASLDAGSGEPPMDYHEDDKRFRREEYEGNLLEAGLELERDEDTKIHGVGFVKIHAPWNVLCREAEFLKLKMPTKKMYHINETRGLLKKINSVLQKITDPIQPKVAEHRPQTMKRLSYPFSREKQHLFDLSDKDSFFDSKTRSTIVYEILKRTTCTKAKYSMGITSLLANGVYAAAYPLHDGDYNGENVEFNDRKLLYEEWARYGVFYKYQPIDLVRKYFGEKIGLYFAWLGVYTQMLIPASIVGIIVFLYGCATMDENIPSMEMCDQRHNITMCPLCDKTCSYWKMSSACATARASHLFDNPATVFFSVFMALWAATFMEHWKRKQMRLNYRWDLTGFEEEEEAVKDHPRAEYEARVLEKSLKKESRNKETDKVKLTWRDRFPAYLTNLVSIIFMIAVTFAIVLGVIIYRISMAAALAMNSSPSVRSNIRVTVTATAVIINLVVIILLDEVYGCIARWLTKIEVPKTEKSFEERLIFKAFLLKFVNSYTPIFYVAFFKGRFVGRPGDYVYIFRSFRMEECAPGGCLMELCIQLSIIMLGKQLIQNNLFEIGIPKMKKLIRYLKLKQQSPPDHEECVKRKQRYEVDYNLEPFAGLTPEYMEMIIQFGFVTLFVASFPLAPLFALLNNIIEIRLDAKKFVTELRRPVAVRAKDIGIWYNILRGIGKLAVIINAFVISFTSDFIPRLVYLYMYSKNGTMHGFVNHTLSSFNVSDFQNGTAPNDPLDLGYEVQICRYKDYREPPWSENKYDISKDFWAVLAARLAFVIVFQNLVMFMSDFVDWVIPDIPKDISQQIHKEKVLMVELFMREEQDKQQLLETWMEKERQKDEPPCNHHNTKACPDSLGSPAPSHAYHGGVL

SMILES | % Potentiation @ 3.33 μM Avg | EC50
N#CC1(NC(=O)c2cc(NC(=O)Cc3cc(Cl)ccc3O)ccn2)COC1 [Example 47.3, 4-[[2-(5-Chloro-2-hydroxy-phenyl)acetyl]amino]-N-(3-cyanooxetan-3-yl)pyridine-2-carboxamide] | 237% | 350 nM
CC1(NC(=O)c2cc(NC(=O)Cc3cc(F)ccc3O)ccn2)CCC1 [Example 48, 4-[[2-(5-Fluoro-2-hydroxy-phenyl)acetyl]amino]-N-(1-methylcyclobutyl)pyridine-2-carboxamide] | 195% | 100 nM
N#CC1(NC(=O)c2cc(NC(=O)Cc3cc(F)ccc3O)ccn2)CCOCC1 [Example 48.1, N-(4-Cyanotetrahydropyran-4-yl)-4-[[2-(5-fluoro-2-hydroxy-phenyl)acetyl]amino] pyridine-2-carboxamide] | 185% | 420 nM
CC(C)(C)NC(=O)CC(C)(C)NC(=O)c1cc(NC(=O)Cc2cc(Cl)ccc2O)ccn1 [Example 49, N-[3-(tert-Butylamino)-1,1-dimethyl-3-oxo-propyl]-4-[[2-(5-chloro-2-hydroxy-phenyl)acetyl]amino]pyridine-2-carboxamide] | 226% | 680 nM
CC(C)(CCNS(C)(=O)=O)NC(=O)c1cc(NC(=O)Cc2cc(Cl)ccc2O)ccn1 [Example 50, 4-[[2-(5-Chloro-2-hydroxy-phenyl)acetyl]amino]-N-[3-(methanesulfonamido)-1,1-dimethyl-propyl]pyridine-2-carboxamide] | 65% | –
CC(=O)NCCC(C)(C)NC(=O)c1cc(NC(=O)Cc2cc(Cl)ccc2O)ccn1 [Example 51, N-(3-Acetamido-1,1-dimethyl-propyl)-4-[[2-(5-chloro-2-hydroxy-phenyl)acetyl]amino]pyridine-2-carboxamide] | 54% | –
O=C(Cc1cc(Cl)ccc1O)Nc1ccnc(C(=O)NC2(CO)CCOCC2)c1 [Example 53, 4-[[2-(5-Chloro-2-hydroxy-phenyl)acetyl]amino]-N-[4-(hydroxymethyl)tetrahydropyran-4-yl]pyridine-2-carboxamide] | 184% | 390 nM
CC(O)c1cccc(CC(=O)Nc2ccnc(C(=O)NC(C)(C)C)c2)c1 (stereo not drawn) [Example 54, N-tert-Butyl-4-[[2-[3-(1-hydroxyethyl)phenyl]acetyl]amino]pyridine-2-carboxamide] | 62% | –
CC(C)(C)NC(=O)c1cc(NC(=O)Cc2cc(Cl)ccc2O)c(Cl)cn1 [Example 55, N-tert-Butyl-5-chloro-4-[[2-(5-chloro-2-hydroxy-phenyl)acetyl]amino]pyridine-2-carboxamide] | 114% | –
COc1ccc(COc2ccc(Cl)cc2CC(=O)Nc2ccnc(C(=O)NC(C)(C)C)c2)cc1 [Example 56, N-tert-Butyl-4-[[2-[5-chloro-2-[(4-methoxyphenyl)methoxy]phenyl]acetyl]amino]pyridine-2-carboxamide] | 76% | –
CC(C)(C)NC(=O)c1cc(NC(=O)Cc2ccccc2C2CC2)ccn1 [Example 58, N-tert-Butyl-4-[[2-(2-cyclopropylphenyl)acetyl]amino]pyridine-2-carboxamide] | 217% | –
CC(C)(C)NC(=O)c1cc(NC(=O)Cc2cc(Cl)cc(Br)c2O)ccn1 [Example 59, 4-[[2-(3-Bromo-5-chloro-2-hydroxy-phenyl)acetyl]amino]-N-tert-butyl-pyridine-2-carboxamide] | 175% | –
O=C(Cc1ccccc1F)Nc1ccnc(C(=O)NC23CCC(F)(C2)C3)c1 [Example 60, N-(4-Fluoro-1-bicyclo[2.1.1]hexanyl)-4-[[2-(2-fluorophenyl)acetyl]amino]pyridine-2-carboxamide] | 126% | 350 nM
CC(C#N)(CO)NC(=O)c1cc(NC(=O)Cc2ccccc2F)ccn1 (stereo not drawn) [Example 60.1, N-(1-Cyano-2-hydroxy-1-methyl-ethyl)-4-[[2-(2-fluorophenyl)acetyl]amino]pyridine-2-carboxamide] | 60% | –
C#CC(C)(C)NC(=O)c1cc(NC(=O)Cc2ccccc2F)ccn1 [Example 60.2, N-(1,1-Dimethylprop-2-ynyl)-4-[[2-(2-fluorophenyl)acetyl]amino]pyridine-2-carboxamide] | 169% | 200 nM
CC(C)c1cc(Cl)cc(CC(=O)Nc2ccnc(C(=O)NC(C)(C)C)c2)c1O [Example 61, N-tert-Butyl-4-[[2-(5-chloro-2-hydroxy-3-isopropyl-phenyl)acetyl]amino]pyridine-2-carboxamide] | 85% | –
COC(C)c1cc(Cl)cc(CC(=O)Nc2ccnc(C(=O)NC(C)(C)C)c2)c1O (stereo not drawn) [Example 62, N-tert-Butyl-4-[[2-[5-chloro-2-hydroxy-3-(1-methoxyethyl)phenyl]acetyl]amino] pyridine-2-carboxamide] | 99% | –
O=C(Cc1ccc2ncccc2c1)Nc1ccnc(C(=O)NC2CCOCC2)c1 [Example 63, 4-[[2-(6-Quinolyl)acetyl]amino]-N-tetrahydropyran-4-yl-pyridine-2-carboxamide] | 37% | –
CC(C)(C)NC(=O)c1cc(NC(=O)NCc2ccccc2)ccn1 [Example 64, 4-(Benzylcarbamoylamino)-N-tert-butyl-pyridine-2-carboxamide] | 55% | –
CC(C)(C)NC(=O)c1cc(NC(=O)NCC2CCCCC2)ccn1 [Example 64.1, N-tert-Butyl-4-(cyclohexylmethylcarbamoylamino)pyridine-2-carboxamide] | 78% | –
CC(C)(C)NC(=O)c1cc(NC(=O)NCCc2ccccc2)ccn1 [Example 64.2, N-tert-Butyl-4-(2-phenylethylcarbamoylamino)pyridine-2-carboxamide] | 61% | –
C[C@@H](NC(=O)Nc1ccnc(C(=O)NC(C)(C)C)c1)c1ccccc1 [Example 64.3, N-tert-Butyl-4-[[(1R)-1-phenylethyl]carbamoylamino]pyridine-2-carboxamide] | 70% | –
C[C@H](NC(=O)Nc1ccnc(C(=O)NC(C)(C)C)c1)c1ccccc1 [Example 64.4, N-tert-Butyl-4-[[(1S)-1-phenylethyl]carbamoylamino]pyridine-2-carboxamide] | 2% | –
CC(C)(C)NC(=O)c1cc(NC(=O)NCc2ccccc2Cl)ccn1 [Example 64.5, N-tert-Butyl-4-[(2-chlorophenyl)methylcarbamoylamino]pyridine-2-carboxamide] | 143% | 450 nM
CC(C)(C)NC(=O)c1cc(NC(=O)Nc2c[nH]c3ccccc23)ccn1 [Example 64.6, N-tert-butyl-4-(1H-indol-3-ylcarbamoylamino)pyridine-2-carboxamide] | 0% | –
